Test results reported in PMC4669708 (Cell Death & Disease, 2015).

How the values were obtained:
Assay in all cases: c-ponatinib pulldown LC-MS/MS
Type in all cases: binding
TESK2 = TESK2 (Homo sapiens, UniProt Q96S53)
Procedure, shortened: (§1)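 Affinity matrix: 25 nmol c-ponatinib/50 μl NHS-Sepharose; 10 mg whole cell lysate input; duplicate pulldowns, each run twice by LC-MS/MS. DTT/iodoacetamide, trypsin. Human SwissProt search, protein FDR <1%. Competition with free compound; fold reduction = median spectral count ratio.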

HSPA9 = HSPA9 (Homo sapiens, UniProt P38646)
HSPA9, sequence (P38646 47-679): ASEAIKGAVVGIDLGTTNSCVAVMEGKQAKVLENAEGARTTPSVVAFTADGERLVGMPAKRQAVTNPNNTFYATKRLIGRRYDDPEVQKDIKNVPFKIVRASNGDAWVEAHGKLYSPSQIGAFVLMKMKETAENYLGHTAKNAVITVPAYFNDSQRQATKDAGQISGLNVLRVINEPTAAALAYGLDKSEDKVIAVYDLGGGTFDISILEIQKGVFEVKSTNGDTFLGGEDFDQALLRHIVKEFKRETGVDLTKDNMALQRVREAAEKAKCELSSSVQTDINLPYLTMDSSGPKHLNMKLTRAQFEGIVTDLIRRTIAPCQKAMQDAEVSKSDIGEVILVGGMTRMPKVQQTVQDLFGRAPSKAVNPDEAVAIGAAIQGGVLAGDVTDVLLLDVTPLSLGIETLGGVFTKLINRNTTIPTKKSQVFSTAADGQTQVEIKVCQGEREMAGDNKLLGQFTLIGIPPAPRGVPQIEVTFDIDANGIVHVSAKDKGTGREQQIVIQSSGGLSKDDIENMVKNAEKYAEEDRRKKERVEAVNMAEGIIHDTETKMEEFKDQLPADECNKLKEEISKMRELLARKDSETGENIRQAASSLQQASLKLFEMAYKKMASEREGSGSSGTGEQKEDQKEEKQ
Procedure, shortened: as §1

YWHAB = target: T1, YWHAB (Homo sapiens, UniProt P31946)
T1 sequence (P31946 1-246): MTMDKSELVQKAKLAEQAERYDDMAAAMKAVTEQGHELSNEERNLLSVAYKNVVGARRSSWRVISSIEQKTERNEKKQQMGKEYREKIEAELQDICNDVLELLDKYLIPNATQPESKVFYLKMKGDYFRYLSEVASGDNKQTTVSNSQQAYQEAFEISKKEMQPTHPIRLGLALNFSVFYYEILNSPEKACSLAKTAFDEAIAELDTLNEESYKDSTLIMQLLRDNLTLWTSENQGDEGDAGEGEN
Procedure, shortened: as §1

MAPKAPK3 = MAPKAPK3 (Homo sapiens, UniProt Q16644)
MAPKAPK3, sequence (Q16644 whole entry): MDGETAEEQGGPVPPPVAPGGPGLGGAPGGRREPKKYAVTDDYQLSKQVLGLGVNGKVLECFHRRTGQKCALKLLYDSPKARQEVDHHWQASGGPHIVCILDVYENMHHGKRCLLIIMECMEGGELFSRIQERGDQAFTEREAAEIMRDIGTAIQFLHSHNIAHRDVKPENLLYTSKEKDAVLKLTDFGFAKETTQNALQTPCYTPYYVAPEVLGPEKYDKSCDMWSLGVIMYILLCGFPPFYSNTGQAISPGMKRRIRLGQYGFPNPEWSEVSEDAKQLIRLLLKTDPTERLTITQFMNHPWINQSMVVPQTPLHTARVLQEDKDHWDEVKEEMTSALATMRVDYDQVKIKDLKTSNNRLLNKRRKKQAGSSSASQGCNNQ
Procedure, shortened: as §1

TPM4 = TPM4 (Homo sapiens, UniProt P67936)
TPM4, sequence (P67936 whole entry): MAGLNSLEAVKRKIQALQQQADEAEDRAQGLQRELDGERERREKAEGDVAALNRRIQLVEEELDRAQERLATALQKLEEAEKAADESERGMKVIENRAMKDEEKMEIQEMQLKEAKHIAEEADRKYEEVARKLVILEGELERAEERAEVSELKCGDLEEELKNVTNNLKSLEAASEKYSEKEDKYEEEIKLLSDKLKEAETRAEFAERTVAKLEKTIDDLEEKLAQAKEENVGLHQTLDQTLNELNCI
Procedure, shortened: as §1

YWHAE = target: T2, YWHAE (Homo sapiens, UniProt P62258)
T2 sequence (P62258 1-255): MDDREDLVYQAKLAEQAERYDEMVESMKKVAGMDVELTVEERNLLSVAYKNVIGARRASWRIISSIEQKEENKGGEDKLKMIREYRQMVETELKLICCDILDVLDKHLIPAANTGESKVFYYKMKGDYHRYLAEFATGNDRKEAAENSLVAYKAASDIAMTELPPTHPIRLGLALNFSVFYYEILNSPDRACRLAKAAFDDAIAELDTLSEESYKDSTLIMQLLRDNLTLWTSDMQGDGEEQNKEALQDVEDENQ
Procedure, shortened: as §1

CCT4 = target: T3, CCT4 (Homo sapiens, UniProt P50991)
T3 sequence (P50991 1-539): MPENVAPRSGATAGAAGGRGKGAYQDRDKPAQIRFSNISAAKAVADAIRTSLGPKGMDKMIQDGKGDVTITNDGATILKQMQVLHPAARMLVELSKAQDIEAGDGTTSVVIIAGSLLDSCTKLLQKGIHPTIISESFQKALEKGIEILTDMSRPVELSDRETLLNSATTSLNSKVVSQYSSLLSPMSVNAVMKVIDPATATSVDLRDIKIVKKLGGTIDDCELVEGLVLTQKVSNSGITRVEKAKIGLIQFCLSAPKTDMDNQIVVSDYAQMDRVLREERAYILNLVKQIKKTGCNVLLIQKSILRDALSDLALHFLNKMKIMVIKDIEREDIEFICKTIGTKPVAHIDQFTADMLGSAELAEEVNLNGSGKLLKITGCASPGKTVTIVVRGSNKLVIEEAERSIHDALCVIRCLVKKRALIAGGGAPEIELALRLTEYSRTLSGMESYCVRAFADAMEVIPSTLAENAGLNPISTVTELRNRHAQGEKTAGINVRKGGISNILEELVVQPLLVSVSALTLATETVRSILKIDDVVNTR
Procedure, shortened: as §1

TESK2, sequence (Q96S53 whole entry): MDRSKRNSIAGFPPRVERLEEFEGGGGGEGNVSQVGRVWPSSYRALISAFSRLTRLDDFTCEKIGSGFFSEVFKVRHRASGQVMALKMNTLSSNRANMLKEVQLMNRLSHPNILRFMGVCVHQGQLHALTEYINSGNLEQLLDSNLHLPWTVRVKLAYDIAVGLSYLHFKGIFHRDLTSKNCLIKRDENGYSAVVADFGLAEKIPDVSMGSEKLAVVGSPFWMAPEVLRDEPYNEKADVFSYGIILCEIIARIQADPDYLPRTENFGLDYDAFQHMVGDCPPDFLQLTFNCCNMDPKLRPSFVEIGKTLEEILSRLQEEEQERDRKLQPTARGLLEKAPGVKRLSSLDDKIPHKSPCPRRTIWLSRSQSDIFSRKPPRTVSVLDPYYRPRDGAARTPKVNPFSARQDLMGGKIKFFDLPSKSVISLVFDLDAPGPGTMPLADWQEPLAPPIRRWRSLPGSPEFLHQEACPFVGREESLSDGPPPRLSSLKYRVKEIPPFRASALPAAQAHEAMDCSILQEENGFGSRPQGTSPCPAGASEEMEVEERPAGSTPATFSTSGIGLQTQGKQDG

Av. SC comp. (TESK2; + free ponatinib): 0
Total SC comp. (TESK2; + free ponatinib): 0
Av. SC (TESK2; no competitor): 5
Total SC (TESK2; no competitor): 20
Av. SC comp. (HSPA9; + free ponatinib): 0
Total SC comp. (HSPA9; + free ponatinib): 0
Av. SC (HSPA9; no competitor): 3.25
Total SC (HSPA9; no competitor): 13
Av. SC comp. (YWHAB; + free ponatinib): 1
Total SC comp. (YWHAB; + free ponatinib): 4
Av. SC (YWHAB; no competitor): 7
Total SC (YWHAB; no competitor): 28
Av. SC comp. (MAPKAPK3; + free ponatinib): 0
Total SC comp. (MAPKAPK3; + free ponatinib): 0
Av. SC (MAPKAPK3; no competitor): 10.5
Total SC (MAPKAPK3; no competitor): 42
Av. SC comp. (TPM4; + free ponatinib): 0.25
Total SC comp. (TPM4; + free ponatinib): 1
Av. SC (TPM4; no competitor): 3.5
Total SC (TPM4; no competitor): 14
Av. SC comp. (YWHAE; + free ponatinib): 1
Total SC comp. (YWHAE; + free ponatinib): 4
Av. SC (YWHAE; no competitor): 13
Total SC (YWHAE; no competitor): 52
Av. SC comp. (CCT4; + free ponatinib): 0
Total SC comp. (CCT4; + free ponatinib): 0
Av. SC (CCT4; no competitor): 3.5
Total SC (CCT4; no competitor): 14
Compound: Cc1ccc(C(=O)Nc2ccc(CN3CCN(CCCN)CC3)c(C(F)(F)F)c2)cc1C#Cc1cnc2cccnn12 [c-ponatinib]
